Results taken from patent US20250051356A1, “RIFABUTIN ANALOGS FOR THE TREATMENT OF DISEASE” (priority 2021, published 2025).
In brackets after ≈: the same amount, converted by molar mass. Where two headings read alike, the source gives them in different places.

Assays:
Assay type in all cases: cell-based
M. xenopi (ATCC 19250) = experiment: MIC against M. xenopi in CAMHB + ADC; conditions: Mycobacterium xenopi
[1] = test system: S. aureus (UAMS-1625 strain); experiment: MIC by broth microdilution against S. aureus; conditions: Staphylococcus aureus, read-out: MIC S. aureus
[2] = test system: M. abscessus subsp. abscessus ATCC 19977; experiment: MIC against M. abscessus in Middlebrook 7H9 + ADC; conditions: Mycobacteroides abscessus
M. avium (ATCC 25291) = experiment: MIC against M. avium in CAMHB + ADC; conditions: Mycobacterium avium
M. kansasii (ATCC 12478) = experiment: MIC against M. kansasii in CAMHB + ADC; conditions: Mycobacterium kansasii
[3] = test system: A. baumannii (HUMC1 strain); experiment: MIC by broth microdilution against A. baumannii in RPMI + 10% FCS; conditions: Acinetobacter baumannii, read-out: MIC A. baumannii
[4] = ATCC19250, ATCC 19250, CAMHB + ADC (5%), read-out: MIC M. xenopi
[5] = ATCC19977, ATCC 19977, 7H9 + ADC, read-out: MIC M. abscessus
[6] = ATCC25291, ATCC 25291, CAMHB + ADC (5%), read-out: MIC M. avium
[7] = ATCC12478, ATCC 12478, CAMHB + ADC (5%), read-out: MIC M. kansasii
[8] = ATCC19977, read-out: MIC M. abscessus
[9] = ATCC19250, read-out: MIC M. xenopi
[10] = ATCC25291, read-out: MIC M. avium
[11] = ATCC12478, read-out: MIC M. kansasii

Row | SMILES | MIC (M. xenopi (ATCC 19250); [4]) | MIC [1] | MIC [2, 5] | MIC (M. avium (ATCC 25291); [6]) | MIC (M. kansasii (ATCC 12478); [7]) | MIC ([3]; HUMC1 strain, RPMI + 10% FCS) | MIC [2, 8] | MIC (M. xenopi (ATCC 19250); [9]) | MIC (M. avium (ATCC 25291); [10]) | MIC (M. kansasii (ATCC 12478); [11]) | MIC [3]
1 | CO[C@H]1/C=C/O[C@@]2(C)Oc3c(C)c(O)c4c(c3C2=O)C2=NC3(CCN(CC(C)C)CC3)NC2=C(NC(=O)/C(C)=C\C=C\[C@H](C)[C@H](O)[C@@H](C)[C@@H](O)[C@@H](C)[C@H](OC(=O)CC(=O)N2CCC(N(C)c3ccccc3)CC2)[C@@H]1C)C4=O [Compound 14] | 0.03 µg/mL | 0.5 µg/mL (≈ 0.47 µM) | 0.125 µg/mL | 0.06 µg/mL | 0.002 µg/mL | 0.06 µg/mL |  |  |  |  | 
2 | CO[C@H]1/C=C/O[C@@]2(C)Oc3c(C)c(O)c4c(c3C2=O)C2=NC3(CCN(CC(C)C)CC3)NC2=C(NC(=O)/C(C)=C\C=C\[C@H](C)[C@H](O)[C@@H](C)[C@@H](O)[C@@H](C)[C@H](OC(=O)CC(=O)N2CCCN(c3ccc(F)cc3)CC2)[C@@H]1C)C4=O [Compound 66] | 0.06 µg/mL | 0.125 µg/mL (≈ 0.117 µM) |  | 0.125 µg/mL | 0.016 µg/mL | 0.016 µg/mL | 0.125 µg/mL |  |  |  | 
3 | COc1cc(NC2CCN(C(=O)CC(=O)O[C@H]3[C@H](C)[C@H](O)[C@H](C)[C@@H](O)[C@@H](C)/C=C/C=C(/C)C(=O)NC4=C5NC6(CCN(CC(C)C)CC6)N=C5c5c(c(O)c(C)c6c5C(=O)[C@@](C)(O/C=C/[C@H](OC)[C@H]3C)O6)C4=O)CC2)cc(OC)c1 [Compound 106] | 0.125 µg/mL | 0.25 µg/mL (≈ 0.225 µM) | 0.25 µg/mL | 0.5 µg/mL | 0.03 µg/mL | 0.008 µg/mL |  |  |  |  | 
4 | CO[C@H]1/C=C/O[C@@]2(C)Oc3c(C)c(O)c4c(c3C2=O)C2=NC3(CCN(CC(C)C)CC3)NC2=C(NC(=O)/C(C)=C\C=C\[C@H](C)[C@H](O)[C@@H](C)[C@@H](O)[C@@H](C)[C@H](OC(=O)CC(=O)N2CCCN(c3ccccn3)CC2)[C@@H]1C)C4=O [Compound 122] | 0.03 µg/mL | 0.06 µg/mL (≈ 0.0571 µM) | 0.125 µg/mL | 0.125 µg/mL | 0.002 µg/mL | ≤ 0.002 µg/mL |  |  |  |  | 
5 | CO[C@H]1/C=C/O[C@@]2(C)Oc3c(C)c(O)c4c(c3C2=O)C2=NC3(CCN(CC(C)C)CC3)NC2=C(NC(=O)/C(C)=C\C=C\[C@H](C)[C@H](O)[C@@H](C)[C@@H](O)[C@@H](C)[C@H](OC(=O)CC(=O)N2CCC(Nc3ccccc3C#N)CC2)[C@@H]1C)C4=O [Compound 107] |  | 0.25 µg/mL (≈ 0.233 µM) |  |  |  |  | 0.125 µg/mL | 0.06 µg/mL | 0.125 µg/mL | 0.016 µg/mL | 0.5 µg/mL
6 | CO[C@H]1/C=C/O[C@@]2(C)Oc3c(C)c(O)c4c(c3C2=O)C2=NC3(CCN(CC(C)C)CC3)NC2=C(NC(=O)/C(C)=C\C=C\[C@H](C)[C@H](O)[C@@H](C)[C@@H](O)[C@@H](C)[C@H](OC(=O)CC(=O)N2CCC(C(=O)c3ccccc3)CC2)[C@@H]1C)C4=O [Compound 55] | 0.06 µg/mL | 0.5 µg/mL (≈ 0.471 µM) | 0.25 µg/mL | 1 µg/mL | 0.016 µg/mL | 0.016 µg/mL |  |  |  |  | 
7 | CO[C@H]1/C=C/O[C@@]2(C)Oc3c(C)c(O)c4c(c3C2=O)C2=NC3(CCN(CC(C)C)CC3)NC2=C(NC(=O)/C(C)=C\C=C\[C@H](C)[C@H](O)[C@@H](C)[C@@H](O)[C@@H](C)[C@H](OC(=O)CC(=O)N2CCC(n3nnc5cc(C(F)(F)F)ccc53)CC2)[C@@H]1C)C4=O [Compound 49] | 0.03 µg/mL | 1 µg/mL (≈ 0.875 µM) | 0.25 µg/mL | 0.06 µg/mL | 0.008 µg/mL | 0.25 µg/mL |  |  |  |  | 
8 | CO[C@H]1/C=C/O[C@@]2(C)Oc3c(C)c(O)c4c(c3C2=O)C2=NC3(CCN(CC(C)C)CC3)NC2=C(NC(=O)/C(C)=C\C=C\[C@H](C)[C@H](O)[C@@H](C)[C@@H](O)[C@@H](C)[C@H](OC(=O)CC(=O)N2CCC(Oc3ccccc3)CC2)[C@@H]1C)C4=O [Compound 57] |  | 0.5 µg/mL (≈ 0.476 µM) |  |  |  |  | 0.125 µg/mL | 0.03 µg/mL | 0.125 µg/mL | 0.008 µg/mL | 0.03 µg/mL
9 | CO[C@H]1/C=C/O[C@@]2(C)Oc3c(C)c(O)c4c(c3C2=O)C2=NC3(CCN(CC(C)C)CC3)NC2=C(NC(=O)/C(C)=C\C=C\[C@H](C)[C@H](O)[C@@H](C)[C@@H](O)[C@@H](C)[C@H](OC(=O)CC(=O)N2CCC(Nc3ccncc3Cl)CC2)[C@@H]1C)C4=O [Compound 110] |  | 0.125 µg/mL (≈ 0.115 µM) |  | 0.25 µg/mL | 0.008 µg/mL | 0.06 µg/mL | 0.125 µg/mL | 0.125 µg/mL |  |  | 
10 | CO[C@H]1/C=C/OC2(C)Oc3c(C)c(O)c4c(c3C2=O)C2=NC3(CCN(CC(C)C)CC3)NC2=C(NC(=O)/C(C)=C\C=C\[C@H](C)[C@H](O)[C@@H](C)[C@@H](O)[C@@H](C)[C@H](OC(=O)CC(=O)NC2CCN(Cc3ccccc3)C2)[C@@H]1C)C4=O (stereo partly drawn) [Compound 93] | 0.25 µg/mL | 0.125 µg/mL (≈ 0.119 µM) | 0.25 µg/mL | 0.5 µg/mL | 0.008 µg/mL | 0.008 µg/mL |  |  |  |  | 
